Laboratory results published in US20080063643A1, “Peptide Derived From Hepatitis C Virus” (priority 2003, published 2008).

Key:
peptide-specific IgG = experiment: ELISA screening of peptide-reactive IgG in plasma of 12 HCV-1b patients and 10 HDs (Example 2); format: binding, human; conditions: plasma dilution 1:100; for Reactivity to peptide-specific IgG HD (n = 10): number of 10 HDs above cut-off 0.18 OD; for Reactivity to peptide-specific IgG Patients (n = 12): number of 12 HCV-1b+ patients above cut-off 0.18 OD
Text: Forty-four types of synthetic peptides that were derived from a highly conserved region of HCV-1b protein and selected based on a high binding score to HLA-A24 molecule (Bioinformatics and Molecular Analysis Section, NIH, Bethesda, Md.) were used. A peptide derived from HIV that has an HLA-A24 binding motif ([…] (SEQ ID NO: 63)) served as a negative control. For the screening of the reactivity of peptide to serum IgG, desalted grade of the peptides (>70%) were purchased from BioSynthesis (Lewisville, Tex.) or SynPep (Dublin, Calif.). A purified peptide (>90%) was used in the subsequent experiments. The plasma level of peptide-specific IgG was measured by an enzyme-linked immunosorbent assay (ELISA). The specificity of anti-peptide IgG in a plasma sample was tested by the absorption and elution of peptide-reactive IgG.
In order to screen for a humoral response to the peptides, the level of IgG reactive to each of the 44 types of peptides was assayed in the plasma of 12 patients infected with HCV-1b. The plasma of 10 HDs was used as a negative control. The level of peptide-reactive IgG was measured by ELISA for serially diluted plasma samples and reported by the values of absorbance (OD) of each sample. The cut-off value of these peptides at a plasma dilution of 1:100 was set at 0.18 OD (mean (0.08)+2SD (0.05×2) of 10 HDs). A significant level (>0.18 OD at a plasma dilution of 1:100) of IgG reactive to NS5A-2132, C-176, E2-488, E1-213, C-173 and NS3-1081 peptides were detectable in the plasma of 12, 11, 10, 9, 8 and 5 patients among the 12 patients, respectively (FIG. 9). As expected, none of these peptides was reactive to the plasma from the 10 HDs.

[1] = test system: peptide-specific IgG in the serum; experiment: ELISA of peptide-specific IgG in sera of HCV patients and healthy donors (Example 1); format: binding, human; conditions: ELISA, cut-off value 1.83; for Healthy donors (n = 10) Positive n: number of 10 healthy donors with serum IgG reactive to the peptide; for HCV patients (n = 12) Positive n: number of 12 HCV patients with serum IgG reactive to the peptide; for Healthy donors (n = 10) Positive %: share of 10 healthy donors with serum IgG reactive to the peptide; for HCV patients (n = 12) Positive %: share of 12 HCV patients with serum IgG reactive to the peptide
Experimental: Synthetic peptides having an HLA-A2-binding motif or an HLA-A24-binding motif from a conserved region of HCV genotype 1b protein were used in this study (Table 1). A peptide derived from HIV having an HLA-A2-binding motif was used as a negative control. All of these peptides were purchased from a commercially supplier. The purity was analyzed by reverse-phase high-pressure liquid chromatography and found to be 90% or higher.
The level of the peptide-specific IgG in the serum was measured by ELISA. First, each peptide was dissolved in dimethyl sulfoxide (DMSO) and stored at −80° C. The peptide was diluted with 0.1 M sodium carbonate/sodium bicarbonate solution containing disuccinimidyl suberate (DSS) as a crosslinker. An ELISA plate was coated with 20 μg/well of peptide at 4° C. overnight. The wells were washed 3 times with 0.05% Tween 20/PBS (PBST), and the plate was blocked with Block Ace (registered trademark) and left overnight at 4° C. Plasma or serum samples were diluted in 1:100, 1:200 and 1:400 with 0.05% Tween 20/Block Ace, and 100 μl of each of the samples was added to each well. After the samples were incubated at 37° C. for 2 hours, the plate was washed 9 times with PBST, 100 μl of a 1:1000 diluted rabbit anti-human IgG (γ-chain specific) was added to each well, and incubated at 37° C. for 2 hours. The plate was washed 9 times with PBST, and 100 μl of 1:100 diluted mouse anti-rabbit IgG conjugated to a horseradish peroxidase-dextran polymer was added to each well, and then the plate was incubated at room temperature for 40 minutes. After the plate was washed, 100 μl of a tetramethylbenzidine substrate solution was added to each well. The reaction was stopped by the addition of 2.0 M phosphoric acid. The cutoff value was calculated as the mean±3 SD of the optical density values of the control obtained from the healthy donors.
The level of IgG that reacts with each of the 62 types of peptides was measured in the sera from 12 patients infected with HCV and 10 healthy donors (HDs) (Table 1).

| Substance | Reactivity to peptide-specific IgG HD (n = 10) (peptide-specific IgG) | Reactivity to peptide-specific IgG Patients (n = 12) (peptide-specific IgG) | Healthy donors (n = 10) Positive n [1] | HCV patients (n = 12) Positive n [1] | Healthy donors (n = 10) Positive % [1] | HCV patients (n = 12) Positive % [1] |
| --- | --- | --- | --- | --- | --- | --- |
| MYVGGVEHRL [No. 20] | 0 | 0 | – | – | – | – |
| GYGAGVAGAL [No. 23] | 0 | 2 | – | – | – | – |
| DFKTWLQSKL [No. 36] | 0 | 1 | – | – | – | – |
| HYVQMALMKL [No. 21] | 0 | 3 | – | – | – | – |
| NFISGIQYL [No. 15] | 0 | 0 | – | – | – | – |
| MYTNVDQDL [No. 5] | 0 | 0 | – | – | – | – |
| LYGVWPLLL [No. 7] | 0 | 0 | – | – | – | – |
| EFWESVFTGL [No. 31] | 0 | 0 | – | – | – | – |
| LFLARLIWWL [No. 33] | 0 | 0 | – | – | – | – |
| AFTASITSPL [No. 35] | 0 | 0 | – | – | – | – |
| TYATYGKFL [No. 10] | 0 | 1 | – | – | – | – |
| HYRDVLKEM [No. 61] | 1 | 3 | – | – | – | – |
| IFTITKILL [No. 18] | 0 | 3 | – | – | – | – |
| QFKQKALGLL [No. 66] | 0 | 1 | – | – | – | – |
| FFTEVDGVRL [No. 37] | 0 | 1 | – | – | – | – |
| AYMSKAHGI [No. 11] | 0 | 2 | – | – | – | – |
| QFKQKALGL [No. 64] | 0 | 1 | – | – | – | – |
| SFAIKWEYVL [No. 39] | 0 | 1 | – | – | – | – |
| VFVGLILLTL [No. 30] | 0 | 2 | – | – | – | – |
| YFITRAEAHL [No. 34] | 1 | 1 | – | – | – | – |
| PYIEQGMQL [No. 14] | 0 | 1 | – | – | – | – |

| Substance | Reactivity to peptide-specific IgG HD (n = 10) (peptide-specific IgG) | Reactivity to peptide-specific IgG Patients (n = 12) (peptide-specific IgG) | Healthy donors (n = 10) Positive n [1] | HCV patients (n = 12) Positive n [1] | Healthy donors (n = 10) Positive % [1] | HCV patients (n = 12) Positive % [1] |
| --- | --- | --- | --- | --- | --- | --- |
| WFMWCLLLL [No. 62] | 0 | 3 | – | – | – | – |
| AYSQQTRGL [No. 8] | 0 | 0 | – | – | – | – |
| QFKQKAIGL [No. 17] | 0 | 3 | – | – | – | – |
| AFYGVWPLL [No. 63] | 0 | 0 | – | – | – | – |
| YYRGLDVSVI [No. 28] | 0 | 2 | – | – | – | – |
| TYVYDHLTPL [No. 22] | 0 | 2 | – | – | – | – |
| SYTWTGALI [No. 60] | 0 | 0 | – | – | – | – |
| EYVLLLFLL [No. 4] | 0 | 2 | – | – | – | – |
| HYPCTVNFTI [No. 27] | 0 | 2 | – | – | – | – |
| TFLVGLNQYL [No. 29] | 0 | 2 | – | – | – | – |
| AYAAQGYKVL [No. 24] | 0 | 2 | – | – | – | – |
| QYSPGQRVEF [No. 65] | 0 | 0 | – | – | – | – |
| HYKLFLARL [No. 9] | 0 | 0 | – | – | – | – |
| QYLAGLSTL [No. 6] | 0 | 0 | – | – | – | – |
| GYIPIVGAPL [No. 19] | 0 | 1 | – | – | – | – |
| 23 (GYGAGVAGAL; Hepatitis C Virus) [Peptide 23] | – | – | 0 | 2 | 0% | 17% |
| 29 (TFLVGLNQYL; Hepatitis C Virus) [Peptide 29] | – | – | 0 | 2 | 0% | 17% |
| 24 (AYAAQGYKVL; Hepatitis C Virus) [Peptide 24] | – | – | 0 | 2 | 0% | 17% |
| PYFVRAHGL [No. 16] | 0 | 0 | – | – | – | – |
| 35 (AFTASITSPL; Hepatitis C Virus) [Peptide 35] | – | – | 0 | 0 | 0% | 0% |
| AYALYGVWPL [No. 26] | 0 | 2 | – | – | – | – |
